From US10188634B2, “3-(3H-imidazo[4,5-C]pyridin-2-yl)-1 H-pyrazolo[4,3-B]pyridines and therapeutic uses thereof” (Samumed, LLC, priority 2015, dated 2019)

Test system: primary human mesenchymal stem cells (hMSCs)
Assay: Induction of chondrogenesis in primary human mesenchymal stem cells (hMSCs), nodule imaging with Rhodamine B / Nile Red
Format: cell-based
Settings: for Emax: hMSCs chondrogenesis, TGF-β3 (10 ng/mL) as positive control, read-out: Max. Activity as % TGF-β3 activity; for EC50: hMSCs, concentration required to induce 50% levels of chondrogenesis vs TGF-β3 positive control, read-out: Conc (nM) of 50% TGF-β3 activity
Method: Representative compounds were screened using primary human mesenchymal stem cells (hMSCs) to determine their ability to induce chondrogenesis (process by which cartilage is developed).
Human Mesenchymal Stem Cell Culture: Primary human mesenchymal stem cells (hMSCs) were purchased from Lonza (Walkersville, Md.) and expanded in Mesenchymal Stem Cell Growth Media (Lonza). Cells between passage 3 and 6 were used for the experiments.
Compound Screening: Each compound was dissolved in DMSO as a 10 mM stock and used to prepare compound source plates. For the 96 well assay, serial dilution (1:3, 6-point dose-response curves from 2700 nM to 10 nM) and compound transfer was performed using the ECHO 550 (Labcyte, Sunnyvale, Calif.) into 96-well clear bottom assay plates (Greiner Bio-One) with appropriate DMSO backfill for a final DMSO concentration of 0.03%. hMSCs were plated at 20,000 cells/well in 250 μL/well Incomplete Chondrogenic Induction Medium (Lonza; DMEM, dexamethasone, ascorbate, insulin-transferrin-selenium [ITS supplement], gentamycin-amphotericin [GA-1000], sodium pyruvate, proline and L-glutamine). TGF-β3 (10 ng/mL) was used as a positive control for differentiation while negative control wells were treated with 75 nL DMSO for normalization and calculating EC50 values. For the 384 well assay, serial dilution (1:3, 8-point dose-response curves from 5000 nM to 2.2 nM) and compound transfer was performed using the ECHO 550 (Labcyte, Sunnyvale, Calif.) into 384-well clear bottom assay plates (Greiner Bio-One) with appropriate DMSO backfill for a final DMSO concentration of 0.03%. hMSCs were plated at 8,000 cells/well in 80 μL/well Incomplete Chondrogenic Induction Medium (Lonza; DMEM, dexamethasone, ascorbate, insulin-transferrin-selenium [ITS supplement], gentamycin-amphotericin [GA-1000], sodium pyruvate, proline and L-glutamine). TGF-β3 (10 ng/mL) was used as a positive control for differentiation while negative control wells were treated with 25 nL DMSO for normalization and calculating EC50 values. Cells were incubated at 37° C. and 5% CO2 for 6 days. To image chondrogenic nodules, the cells were fixed using 4% formaldehyde (Electron Microscopy Sciences), and stained with 2 μg/mL Rhodamine B (Sigma-Aldrich) and 20 μM Nile Red (Sigma-Aldrich) [Johnson K., et.al, A Stem Cell-Based Approach to Cartilage Repair, Science, (2012), 336(6082). 717-721]. The nodules imaged (25 images per well for 96 well plates and 9 images per well for 384 well plates at 10× magnification) by excitation at 531 nm and emission at 625 nm and quantified using the CellInsight CX5 (Thermo Scientific). Area of nodules in each well was normalized to the average of 3 DMSO treated wells on the same plate using Excel (Microsoft Inc.). The normalized averages (fold change over DMSO) of 2 or 3 replicate wells for each compound concentration were calculated. Due to solubility limitations of some of the compounds, curve fitting was incomplete leading to inaccurate EC50 determinations.
Using TGF-β3 as a positive control, the concentration of representative compounds required to induce 50% levels of chondrogenesis is reported. In addition, the maximum activity of each compound and the respective dose that each compound reached maximum chondrogenesis activity is reported.

Q: What does the source list for `CCC(=O)Nc1cncc(-c2ccc3[nH]nc(-c4nc5c(-c6cccs6)cncc5[nH]4)c3n2)c1` [Compound 309, N-(5-(3-(7-(Thiophen-2-yl)-3H-imidazo[4,5-c]pyridin-2-yl)-1H-pyrazolo[4,3-b]pyridin-5-yl)pyridin-3-yl)propionamide]?
A: Emax: 80%; EC50: 30 nM

Q: `CN(C)Cc1cncc(-c2ccc3[nH]nc(-c4nc5c(-c6cccs6)cncc5[nH]4)c3n2)c1` [Compound 321, N,N-dimethyl-1-(5-(3-(7-(thiophen-2-yl)-3H-imidazo[4,5-c]pyridin-2-yl)-1H-pyrazolo[4,3-b]pyridin-5-yl)pyridin-3-yl)methanamine] was tested. Which Emax did it give?
A: 79%

Q: And the EC50?
A: 10 nM

Q: With `Cc1ccc(-c2cncc3[nH]c(-c4n[nH]c5ccc(-c6cncc(NC(=O)C(C)C)c6)nc45)nc23)s1` [Compound 373, N-(5-(3-(7-(5-Methylthiophen-2-yl)-3H-imidazo[4,5-c]pyridin-2-yl)-1H-pyrazolo[4,3-b]pyridin-5-yl)pyridin-3-yl)isobutyramide] as the compound, how does the Emax read?
A: 42%

Q: What does the source list for `CCNCc1cncc(-c2ccc3[nH]nc(-c4nc5c(-c6cc(F)cc(NCCN(C)C)c6)cncc5[nH]4)c3n2)c1` [Compound 426, N^1-(3-(2-(5-(5-((Ethylamino)methyl)pyridin-3-yl)-1H-pyrazolo[4,3-b]pyridin-3-yl)-3H-imidazo[4,5-c]pyridin-7-yl)-5-fluorophenyl)-N^2,N^2-dimethylethane-1,2-diamine]?
A: Emax: 66%; EC50: 1670 nM

Q: What does the source list for `CCCCC(=O)Nc1cncc(-c2ccc3[nH]nc(-c4nc5c(-c6cc(F)cc(NCCN(C)C)c6)cncc5[nH]4)c3n2)c1` [Compound 439, N-(5-(3-(7-(3-((2-(Dimethylamino)ethyl)amino)-5-fluorophenyl)-3H-imidazo[4,5-c]pyridin-2-yl)-1H-pyrazolo[4,3-b]pyridin-5-yl)pyridin-3-yl)pentanamide]?
A: Emax: 65%; EC50: 10 nM

Q: Which Emax does the source give for `CCCC(=O)Nc1cncc(-c2ccc3[nH]nc(-c4nc5c(-c6cc(F)cc(CNS(C)(=O)=O)c6)cncc5[nH]4)c3n2)c1` [Compound 465, N-(5-(3-(7-(3-Fluoro-5-(methylsulfonamidomethyl)phenyl)-3H-imidazo[4,5-c]pyridin-2-yl)-1H-pyrazolo[4,3-b]pyridin-5-yl)pyridin-3-yl)butyramide] here?
A: 39%

Q: With `Fc1cccc(-c2cncc3[nH]c(-c4n[nH]c5ccc(C6CCNCC6)nc45)nc23)c1` [Compound 477, 3-(7-(3-Fluorophenyl)-3H-imidazo[4,5-c]pyridin-2-yl)-5-(piperidin-4-yl)-1H-pyrazolo[4,3-b]pyridine] as the compound, how does the Emax read?
A: 43%

Q: For `Fc1cccc(-c2cncc3[nH]c(-c4n[nH]c5ccc(C6=CCNCC6)nc45)nc23)c1` [Compound 478, 3-(7-(3-Fluorophenyl)-3H-imidazo[4,5-c]pyridin-2-yl)-5-(1,2,3,6-tetrahydropyridin-4-yl)-1H-pyrazolo[4,3-b]pyridine], which Emax is on record?
A: 53%

Q: What about the EC50 of the same compound?
A: 7 nM

Q: Which results are given for `Fc1cccc(-c2cncc3[nH]c(-c4n[nH]c5ccc(-c6cn[nH]c6)nc45)nc23)c1` [Compound 479, 3-(7-(3-Fluorophenyl)-3H-imidazo[4,5-c]pyridin-2-yl)-5-(1H-pyrazol-4-yl)-1H-pyrazolo[4,3-b]pyridine]?
A: Emax: 52%; EC50: 21 nM

Q: How did the Emax turn out when `Cn1cc(-c2ccc3[nH]nc(-c4nc5c(-c6cccc(F)c6)cncc5[nH]4)c3n2)cn1` [Compound 480, 3-(7-(3-Fluorophenyl)-3H-imidazo[4,5-c]pyridin-2-yl)-5-(1-methyl-1H-pyrazol-4-yl)-1H-pyrazolo[4,3-b]pyridine] was run?
A: 49%

Q: What does the source list for `Cc1ncc(-c2ccc3[nH]nc(-c4nc5c(-c6cccc(F)c6)cncc5[nH]4)c3n2)n1C` [Compound 481, 5-(1,2-Dimethyl-1H-imidazol-5-yl)-3-(7-(3-fluorophenyl)-3H-imidazo[4,5-c]pyridin-2-yl)-1H-pyrazolo[4,3-b]pyridine]?
A: Emax: 132%; EC50: 30 nM
